Where two headings read alike, the source gives them in different places.

For data set [1], the system named is human leukemia Jurkat cells. The settings on record: cited from earlier work.
The subject of data set [2] is normal human peripheral blood leucocytes. The settings on record: concentration range 0.5 ug/mL to 10 ug/mL; cited from earlier work.
Data set [3] has as its system human K562 leukemia cell line (chronic myeloid leukemia, CML). The experiment in a line: MTT growth inhibition of leukemia cells, 72 hours. The settings on record: compared with berbamine itself. It counts as cell-based. The text has this:
(§1) Leukemia cell lines: human K562 leukemia cell line (chronic myeloid leukemia, CML), K562/adr (drug-resistant chronic myeloid leukemia (CML), NB4 (acute promyelocytic leukemia, AML), Kasumi-1 (acute myeloid leukemia M2 type, AML-M2), Jurkat (acute lymphoblastic leukemia, ALL), H9 (acute lymphoblastic leukemia, ALL).
(§2) Obtaining 6000 well-growing leukemia cells and inoculating them into wells of a 96-well cell culture plate. The culture medium is the 1640 cell culture medium containing 10% fetal bovine serum. After adding of the berbamine derivatives of different concentrations and mixing uniformly, the plate is placed in a carbon dioxide cell incubator (5% CO2) at 37° C. and incubated for 72 hours. Then the viable cell concentration is determined by the MTT method.

Data set [4] has as its system K562/adr (drug-resistant chronic myeloid leukemia). The data set is described as follows: MTT growth inhibition of leukemia cells, 72 hours. The data set is classed as cell-based, human. The settings on record: compared with berbamine itself.
Description: as §1, §2

Data set [5] deals with RPMI8226 (multiple myeloma). The data set is described as follows: MTT growth inhibition of multiple myeloma cells, 72 hours. It counts as cell-based, human. The settings on record: compared with berbamine itself. How it is done:
Multiple myeloma and lymphoma cell lines: U266 (multiple myeloma), RPMI8226 (multiple myeloma), and DOHH2 (lymphoma).
(§3) Obtaining 6000 well-growing aforesaid tumor cells and inoculating them into wells of a 96-well cell culture plate. The culture medium is the 1640 cell culture medium containing 10% fetal bovine serum. After adding the berbamine derivatives of different concentrations and mixing uniformly, the plate is placed in a carbon dioxide cell incubator (5% CO2) at 37° C. and incubated for 72 hours. Then the viable cell concentration is determined by the MTT method.

For data set [6], the system named is Becap37 (human breast cancer cell). The data set is described as follows: MTT growth inhibition of human solid tumor cells, 72 hours. It counts as cell-based. The settings on record: compared with berbamine itself.
Description: (§4) Human solid tumor cell lines: HepG2 (human hepatocellular carcinoma, HCC), A549 (human lung cancer), MCF-7 (breast cancer), PANC-1 (pancreatic cancer), PC-3 (prostate cancer), MG63 (osteosarcomas), AGS (gastric cancer), Huh7 (human hepatoma cell), Becap37 (human breast cancer cell), Hela (human cervical cancer cell), RKO (human colon adenocarcinoma cell), SW620 (human colon adenocarcinoma cells), SW480 (human colon cancer cell), MGC 803 (human gastric cancer cell).
as §3, with “4000” for “6000”, “human solid” for “aforesaid”, “DMEM High Glucose” for “the 1640”, “method, and the cell viability (%) after drug treatment is calculated. In this experiment, the cell viability of control group (not treated with any compound) is set as 100%.” for “method.”

The test system of data set [7] is HepG2 (human hepatocellular carcinoma, HCC). The description is as above. The data set is classed as cell-based. The settings on record: compared with berbamine itself.
Description: as §4
as §3, with “4000” for “6000”, “human solid” for “aforesaid”, “DMEM High Glucose” for “the 1640”, “method, and the cell viability (%) after drug treatment is calculated. In this experiment, the cell viability of control group (not treated with any compound) is set as 100%.” for “method.”

A further data set has as its system MCF-7 (breast cancer). The description is as above. The data set is classed as cell-based. The conditions noted are these: compared with berbamine itself.
Description: as §4
as §3, with “4000” for “6000”, “human solid” for “aforesaid”, “DMEM High Glucose” for “the 1640”, “method, and the cell viability (%) after drug treatment is calculated. In this experiment, the cell viability of control group (not treated with any compound) is set as 100%.” for “method.”

Another data set has as its system MG63 (osteosarcomas). The data set is described as above. The data set is classed as cell-based. The conditions noted are these: compared with berbamine itself.
Description: as §4
as §3, with “4000” for “6000”, “human solid” for “aforesaid”, “DMEM High Glucose” for “the 1640”, “method, and the cell viability (%) after drug treatment is calculated. In this experiment, the cell viability of control group (not treated with any compound) is set as 100%.” for “method.”

Data set [8] deals with MGC 803 (human gastric cancer cell). The data set is described as above. It counts as cell-based. The settings on record: compared with berbamine itself.
Description: as §4
as §3, with “4000” for “6000”, “human solid” for “aforesaid”, “DMEM High Glucose” for “the 1640”, “method, and the cell viability (%) after drug treatment is calculated. In this experiment, the cell viability of control group (not treated with any compound) is set as 100%.” for “method.”

The subject of data set [9] is PANC-1 (pancreatic cancer). The data set is described as above. The data set is classed as cell-based. The conditions noted are these: compared with berbamine itself.
Description: as §4
as §3, with “4000” for “6000”, “human solid” for “aforesaid”, “DMEM High Glucose” for “the 1640”, “method, and the cell viability (%) after drug treatment is calculated. In this experiment, the cell viability of control group (not treated with any compound) is set as 100%.” for “method.”

For data set [10], the system named is red cell membrane CaM-independent Ca^2++Mg^2+ ATPase. The settings on record: relative to berbamine; cited from earlier work.
The target in another data set is CaM (Homo sapiens, UniProt P0DP23). The conditions noted are these: relative to berbamine; cited from earlier work.

As to `COc1cc2c3cc1Oc1c(OC)c(OC)cc4c1[C@@H](Cc1ccc(O)c(c1)Oc1ccc(cc1)C[C@@H]3N(C)CC2)N(C)CC4` [BBM, 6,6′,7-trimethoxy-2,2′-dimethylberbaman-12-ol], the cell viability rate in [1] (drug concentration 0.5 ug/mL) is 93.69%; in [1] (drug concentration 10 ug/mL), 14.85%. The “cytotoxicity on normal human peripheral blood leucocytes” value in data set [2] was “no obvious cytotoxicity”.
Consider `COc1cc2c3cc1Oc1c(OC)c(OC)cc4c1[C@@H](Cc1ccc(OCCCCCCCN5C(=O)c6ccccc6C5=O)c(c1)Oc1ccc(cc1)C[C@@H]3N(C)CC2)N(C)CC4` [BS-BE-003, 12-O-(7-(1,3-dioxo-isoindolin-2-yl)-heptyl)-berbamine], for which the “improvement of anti-human K562 chronic myelogenous leukemia activity” value in data set [3] is “more than 5 fold”. Besides, the “improvement of anti-K562/adr (drug-resistant chronic myelogenous leukemia) activity” value in data set [4] is on record as “more than 6 fold”. In data set [5], the “improvement of anti-RPMI8226 (multiple myeloma) cell activity” value is recorded as roughly 6 fold. Moreover, the “improvement of anti-Becap37 (human breast cancer cell) activity” value in data set [6] is on record as roughly 5 fold. Also, the “improvement of anti-HepG2 (human hepatocellular carcinoma, HCC) activity” value in data set [7] is listed as roughly 5 fold. The “improvement of anti-MCF-7 (breast cancer) activity” value in the data set on MCF-7 (breast cancer) is roughly 6 fold. Also, the “improvement of anti-MG63 (osteosarcomas) activity” value in the data set on MG63 (osteosarcomas) was roughly 8 fold. In addition, in data set [8], the “improvement of anti-MGC 803 (human gastric cancer cells) activity” value is listed as roughly 7 fold. Moreover, in data set [9], the “improvement of anti-PANC-1 (pancreatic cancer) activity” value is reported as “more than 6 fold”.
As for O-Dansyl berbamine [DB], the “inhibitory activity on red cell membrane CaM-independent Ca^2++Mg^2+ ATPase, stronger than that of berbamine” value in data set [10] is on record as 25 fold.
`CCOCCCCOc1ccc2cc1Oc1ccc(cc1)C[C@H]1c3cc(c(OC)cc3CCN1C)Oc1c(OC)c(OC)cc3c1[C@@H](C2)N(C)CC3` [EBB, [O-(4-ethoxy)-butyl]-berbamine]: the “specific coefficient as CaM antagonist, higher than that of berbamine” value at CaM is given as 6.5 fold.
